Laboratory results from patent US6737383B1, “Herbicidal oxadiazolidines” (priority 1999, dated 2004).

Assays:
rice = experiment: Test B flood test rice; format: in vivo, Oryza sativa
How it was run: (§1)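 Each value is a visual injury score relative to controls, with 10 meaning complete control and 0 no effect. Evaluation took place twelve to sixteen days after the 2-leaf-stage plants were treated and kept in the greenhouse.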

morningglory = experiment: Test B pre/postemergence morningglory; format: in vivo, Ipomoea hederacea
How it was run: (§2)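 Response is a visual 0-to-10 score relative to untreated plants, where 0 means no effect and 10 means complete control, taken twelve to sixteen days after application. Treatments went onto soil at planting and onto foliage of 1- to 4-leaf plants, using a surfactant-containing non-phytotoxic solvent.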

bamyardgrass = experiment: Test B flood test barnyardgrass; format: in vivo, Echinochloa crus-galli
How it was run: as §1

pigweed = experiment: Test B pre/postemergence pigweed; format: in vivo, Amaranthus retroflexus
How it was run: as §2

purple nutsedge = experiment: Test B pre/postemergence purple nutsedge; format: in vivo, Cyperus rotundus
How it was run: as §2

velvetleaf = experiment: Test B pre/postemergence velvetleaf; format: in vivo, Abutilon theophrasti
How it was run: as §2

giant foxtail = experiment: Test B pre/postemergence giant foxtail; format: in vivo, Setaria faberii
How it was run: as §2

surinam grass = experiment: Test B pre/postemergence surinam grass; format: in vivo, Brachiaria decumbens
How it was run: as §2

cocklebur = experiment: Test B pre/postemergence cocklebur; format: in vivo, Xanthium strumarium
How it was run: as §2

blackgrass = experiment: Test B pre/postemergence blackgrass; format: in vivo, Alopecurus myosuroides
How it was run: as §2

corn = experiment: Test B pre/postemergence corn; format: in vivo, Zea mays
How it was run: as §2

duck salad = experiment: Test B flood test duck salad; format: in vivo, Heteranthera limosa
How it was run: as §1

sugar beet = experiment: Test B pre/postemergence sugar beet; format: in vivo, Beta vulgaris
How it was run: as §2

rape = experiment: Test B pre/postemergence rape; format: in vivo, Brassica napus
How it was run: as §2

bedstraw = experiment: Test B pre/postemergence bedstraw; format: in vivo, Galium aparine
How it was run: as §2

[1] = Postemergence, Rate 62 g/ha, scale 0 to 10, 0 is no effect, 10 is complete control
[2] = Rate 125 g/ha, Postemergence section (flood test species), scale 0 to 10, 0 no effect, 10 complete control
[3] = Rate 500 g/ha, listed under Postemergence (flood test species), scale 0 to 10, 0 no effect, 10 complete control
[4] = flood test, listed under Postemergence, Rate 250 g/ha, scale 0 to 10, 0 no effect, 10 complete control
[5] = Postemergence, Rate 250 g/ha, scale 0 to 10, 0 no effect, 10 complete control
[6] = Preemergence, Rate 62 g/ha, scale 0 to 10 (0 no effect, 10 complete control)
[7] = Preemergence, Rate 125 g/ha, scale 0 to 10 (0 no effect, 10 complete control)
[8] = Preemergence, Rate 250 g/ha, scale of 0 to 10 where 0 is no effect and 10 is complete control
[9] = Preemergence, Rate 500 g/ha, scale 0 (no effect) to 10 (complete control)
[10] = Rate 125 g/ha, Postemergence, scale 0 to 10, 0 no effect, 10 complete control
[11] = Rate 500 g/ha, Postemergence, scale 0 to 10, 0 no effect, 10 complete control

Q: For `Cc1cc(C)c(-n2c(=O)on(C(=O)N(c3ccc(F)cc3)C(C)C)c2=O)c(C)c1` [Compound 60], which “Rice plant response rating” value (rice; [1]) is on record?
A: 0

Q: What about the “Rice plant response rating” value (rice; [2]) of the same compound?
A: 0

Q: And the “Rice plant response rating” value (rice; [3])?
A: 0

Q: And the “Rice plant response rating” value (rice; [4])?
A: 0

Q: And the “Morningglory plant response rating” value (morningglory; [1])?
A: 1

Q: And the “Morningglory plant response rating” value (morningglory; [5])?
A: 2

Q: What about the “Morningglory plant response rating” value (morningglory; [6]) of the same compound?
A: 0

Q: What about the “Plant response rating, Morningglory” value (morningglory; [7]) of the same compound?
A: 0

Q: What about the “Plant response rating, Morningglory” value (morningglory; [8]) of the same compound?
A: 0

Q: And the “Morningglory plant response rating” value (morningglory; [9])?
A: 0

Q: What about the “Morningglory plant response rating” value (morningglory; [10]) of the same compound?
A: 2

Q: What about the “Morningglory plant response rating” value (morningglory; [11]) of the same compound?
A: 2

Q: What about the “Barnyardgrass plant response rating” value (bamyardgrass; [1]) of the same compound?
A: 0

Q: And the “Barnyardgrass plant response rating” value (bamyardgrass; [2])?
A: 0

Q: What about the “Barnyardgrass plant response rating” value (bamyardgrass; [3]) of the same compound?
A: 0

Q: And the “Barnyardgrass plant response rating” value (bamyardgrass; [4])?
A: 0

Q: And the “Redroot pigweed plant response rating” value (pigweed; [1])?
A: 2

Q: What about the “Redroot pigweed plant response rating” value (pigweed; [5]) of the same compound?
A: 4

Q: And the “Redroot pigweed plant response rating” value (pigweed; [6])?
A: 0

Q: What about the “Plant response rating, Redroot pigweed” value (pigweed; [7]) of the same compound?
A: 0

Q: And the “Plant response rating, Redroot pigweed” value (pigweed; [8])?
A: 0

Q: And the “Redroot pigweed plant response rating” value (pigweed; [9])?
A: 0

Q: What about the “Redroot pigweed plant response rating” value (pigweed; [10]) of the same compound?
A: 4

Q: And the “Redroot pigweed plant response rating” value (pigweed; [11])?
A: 6

Q: And the “Nutsedge plant response rating” value (purple nutsedge; [1])?
A: 0

Q: And the “Nutsedge plant response rating” value (purple nutsedge; [5])?
A: 0

Q: What about the “Nutsedge plant response rating” value (purple nutsedge; [6]) of the same compound?
A: 0

Q: What about the “Plant response rating, Nutsedge” value (purple nutsedge; [7]) of the same compound?
A: 0

Q: And the “Plant response rating, Nutsedge” value (purple nutsedge; [8])?
A: 0

Q: What about the “Nutsedge plant response rating” value (purple nutsedge; [9]) of the same compound?
A: 0

Q: What about the “Nutsedge plant response rating” value (purple nutsedge; [10]) of the same compound?
A: 0

Q: What about the “Nutsedge plant response rating” value (purple nutsedge; [11]) of the same compound?
A: 0

Q: What about the “Velvetleaf plant response rating” value (velvetleaf; [1]) of the same compound?
A: 0

Q: And the “Velvetleaf plant response rating” value (velvetleaf; [5])?
A: 0

Q: And the “Velvetleaf plant response rating” value (velvetleaf; [6])?
A: 0

Q: What about the “Plant response rating, Velvetleaf” value (velvetleaf; [7]) of the same compound?
A: 0

Q: What about the “Plant response rating, Velvetleaf” value (velvetleaf; [8]) of the same compound?
A: 0

Q: What about the “Velvetleaf plant response rating” value (velvetleaf; [9]) of the same compound?
A: 0

Q: What about the “Velvetleaf plant response rating” value (velvetleaf; [10]) of the same compound?
A: 0

Q: And the “Velvetleaf plant response rating” value (velvetleaf; [11])?
A: 0

Q: What about the “Giant foxtail plant response rating” value (giant foxtail; [1]) of the same compound?
A: 0

Q: What about the “Giant foxtail plant response rating” value (giant foxtail; [5]) of the same compound?
A: 0

Q: And the “Giant foxtail plant response rating” value (giant foxtail; [6])?
A: 3

Q: What about the “Plant response rating, Giant foxtail” value (giant foxtail; [7]) of the same compound?
A: 3

Q: And the “Plant response rating, Giant foxtail” value (giant foxtail; [8])?
A: 4

Q: What about the “Giant foxtail plant response rating” value (giant foxtail; [9]) of the same compound?
A: 5

Q: And the “Giant foxtail plant response rating” value (giant foxtail; [10])?
A: 0

Q: What about the “Giant foxtail plant response rating” value (giant foxtail; [11]) of the same compound?
A: 0

Q: And the “B. signalgrass plant response rating” value (surinam grass; [1])?
A: 0

Q: And the “B. signalgrass plant response rating” value (surinam grass; [5])?
A: 0

Q: And the “B. signalgrass plant response rating” value (surinam grass; [6])?
A: 0

Q: And the “Plant response rating, B. signalgrass” value (surinam grass; [7])?
A: 0

Q: And the “Plant response rating, B. signalgrass” value (surinam grass; [8])?
A: 0

Q: What about the “B. signalgrass plant response rating” value (surinam grass; [9]) of the same compound?
A: 0

Q: And the “B. signalgrass plant response rating” value (surinam grass; [10])?
A: 0

Q: What about the “B. signalgrass plant response rating” value (surinam grass; Rate 500 g/ha, Postemergence, scale of 0 to 10 where 0 is no effect and 10 is complete control) of the same compound?
A: 0

Q: What about the “Cocklebur plant response rating” value (cocklebur; [1]) of the same compound?
A: 0

Q: And the “Cocklebur plant response rating” value (cocklebur; [5])?
A: 0

Q: What about the “Cocklebur plant response rating” value (cocklebur; [6]) of the same compound?
A: 0

Q: And the “Plant response rating, Cocklebur” value (cocklebur; [7])?
A: 0

Q: And the “Cocklebur plant response rating” value (cocklebur; [10])?
A: 0

Q: And the “Cocklebur plant response rating” value (cocklebur; [11])?
A: 0

Q: What about the “Blackgrass plant response rating” value (blackgrass; [1]) of the same compound?
A: 0

Q: And the “Blackgrass plant response rating” value (blackgrass; [5])?
A: 0

Q: What about the “Blackgrass plant response rating” value (blackgrass; [6]) of the same compound?
A: 0

Q: What about the “Plant response rating, Blackgrass” value (blackgrass; [7]) of the same compound?
A: 0

Q: And the “Plant response rating, Blackgrass” value (blackgrass; [8])?
A: 0

Q: And the “Blackgrass plant response rating” value (blackgrass; [9])?
A: 0

Q: What about the “Blackgrass plant response rating” value (blackgrass; [10]) of the same compound?
A: 0

Q: What about the “Blackgrass plant response rating” value (blackgrass; [11]) of the same compound?
A: 0

Q: And the “Corn plant response rating” value (corn; [1])?
A: 0

Q: What about the “Corn plant response rating” value (corn; [5]) of the same compound?
A: 0

Q: And the “Corn plant response rating” value (corn; [6])?
A: 0

Q: What about the “Plant response rating, Corn” value (corn; [7]) of the same compound?
A: 0

Q: And the “Plant response rating, Corn” value (corn; [8])?
A: 0

Q: And the “Corn plant response rating” value (corn; [9])?
A: 0

Q: And the “Corn plant response rating” value (corn; [10])?
A: 0

Q: And the “Corn plant response rating” value (corn; [11])?
A: 0

Q: And the “Ducksalad plant response rating” value (duck salad; [1])?
A: 0

Q: And the “Ducksalad plant response rating” value (duck salad; [2])?
A: 0

Q: And the “Ducksalad plant response rating” value (duck salad; [3])?
A: 0

Q: What about the “Ducksalad plant response rating” value (duck salad; [4]) of the same compound?
A: 0

Q: And the “Sugarbeets plant response rating” value (sugar beet; [1])?
A: 0

Q: What about the “Sugarbeets plant response rating” value (sugar beet; [5]) of the same compound?
A: 0

Q: What about the “Sugarbeets plant response rating” value (sugar beet; [6]) of the same compound?
A: 0

Q: And the “Plant response rating, Sugarbeets” value (sugar beet; [7])?
A: 0

Q: What about the “Plant response rating, Sugarbeets” value (sugar beet; [8]) of the same compound?
A: 3

Q: What about the “Sugarbeets plant response rating” value (sugar beet; [9]) of the same compound?
A: 5

Q: And the “Sugarbeets plant response rating” value (sugar beet; [10])?
A: 0

Q: What about the “Sugarbeets plant response rating” value (sugar beet; [11]) of the same compound?
A: 0

Q: And the “Rape plant response rating” value (rape; [1])?
A: 0

Q: And the “Rape plant response rating” value (rape; [5])?
A: 0

Q: And the “Rape plant response rating” value (rape; [6])?
A: 0

Q: And the “Plant response rating, Rape” value (rape; [7])?
A: 0

Q: And the “Plant response rating, Rape” value (rape; [8])?
A: 0

Q: And the “Rape plant response rating” value (rape; [9])?
A: 0

Q: And the “Rape plant response rating” value (rape; [10])?
A: 0

Q: And the “Rape plant response rating” value (rape; [11])?
A: 4

Q: And the “Bedstraw plant response rating” value (bedstraw; [5])?
A: 7

Q: What about the “Bedstraw plant response rating” value (bedstraw; [6]) of the same compound?
A: 0

Q: What about the “Plant response rating, Bedstraw” value (bedstraw; [7]) of the same compound?
A: 0

Q: And the “Plant response rating, Bedstraw” value (bedstraw; [8])?
A: 0

Q: What about the “Bedstraw plant response rating” value (bedstraw; [9]) of the same compound?
A: 5

Q: And the “Bedstraw plant response rating” value (bedstraw; [10])?
A: 7

Q: What about the “Bedstraw plant response rating” value (bedstraw; [11]) of the same compound?
A: 7
